Experimental data reported in paper PMC10981695, “The thylakoid proton antiporter KEA3 regulates photosynthesis in response to the chloroplast energy status” (Nature Communications, 2024).

Experiments:
[1] = target: T1, RCT (regulatory C-terminus of KEA3, KEA3 AA495-776) (Arabidopsis thaliana, UniProt Q9M0Z3); experiment: differential scanning fluorimetry (nanoDSF, intrinsic fluorescence); format: binding; conditions: pH 8.0, PBS; 50 and 500 µM ligand
T1 sequence (Q9M0Z3 495-776): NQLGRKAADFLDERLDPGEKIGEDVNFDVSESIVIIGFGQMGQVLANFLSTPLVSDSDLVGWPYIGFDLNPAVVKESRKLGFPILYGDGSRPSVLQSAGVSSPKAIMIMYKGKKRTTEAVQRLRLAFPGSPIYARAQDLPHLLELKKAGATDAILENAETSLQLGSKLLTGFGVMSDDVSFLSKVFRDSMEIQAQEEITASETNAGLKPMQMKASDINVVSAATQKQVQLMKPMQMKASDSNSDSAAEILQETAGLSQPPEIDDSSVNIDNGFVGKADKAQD

[2] = target: T1, RCT (regulatory C-terminus of KEA3, KEA3 AA495-776); experiment: temperature-related intensity change (TRIC), RED-tris-NTA labelled His-tag, one-site fit; format: binding
From the text: temperature-related intensity change (TRIC), RED-tris-NTA labelled His-tag, one-site fit on RCT (regulatory C-terminus of KEA3, KEA3 AA495-776)

[3] = target: T2, KEA3 (Arabidopsis thaliana, UniProt Q9M0Z3); experiment: affinity pull-down with ATP-linked agarose beads, immunoblot; format: biochemical; conditions: solubilized thylakoids; ATP immobilised via linker
T2 construct: native full-length KEA3 in detergent-solubilized wild-type thylakoid membranes, detected with specific KEA3 antibody
T2 sequence (Q9M0Z3 73-776): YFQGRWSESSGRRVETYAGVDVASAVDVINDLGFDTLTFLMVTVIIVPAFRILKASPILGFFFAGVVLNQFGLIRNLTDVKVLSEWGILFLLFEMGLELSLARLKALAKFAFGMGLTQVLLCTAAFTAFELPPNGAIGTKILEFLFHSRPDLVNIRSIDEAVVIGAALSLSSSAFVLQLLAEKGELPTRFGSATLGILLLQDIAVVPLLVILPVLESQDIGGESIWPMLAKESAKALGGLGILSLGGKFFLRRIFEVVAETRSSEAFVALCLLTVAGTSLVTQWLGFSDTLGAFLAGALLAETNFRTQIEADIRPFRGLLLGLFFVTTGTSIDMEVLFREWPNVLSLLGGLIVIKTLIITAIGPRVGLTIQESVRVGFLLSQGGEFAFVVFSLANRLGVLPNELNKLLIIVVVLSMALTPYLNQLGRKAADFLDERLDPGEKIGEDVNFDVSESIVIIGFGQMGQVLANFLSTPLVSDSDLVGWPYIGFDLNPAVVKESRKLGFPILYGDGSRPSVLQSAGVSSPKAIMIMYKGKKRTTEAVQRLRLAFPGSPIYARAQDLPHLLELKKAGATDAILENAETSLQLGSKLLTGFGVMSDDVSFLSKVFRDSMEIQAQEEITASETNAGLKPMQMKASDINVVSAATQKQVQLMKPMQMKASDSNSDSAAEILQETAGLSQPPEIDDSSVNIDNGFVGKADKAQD

| Compound | ΔTM [1] | Kd [2] | affinity pull-down with ATP-linked agarose beads, immunoblot [3] |
| --- | --- | --- | --- |
| Nc1ncnc2c1ncn2[C@@H]1O[C@H](COP(=O)(O)OP(=O)(O)O)[C@@H](O)[C@H]1O [ADP] | Addition of either ADP or ATP yielded a concentration-dependent increase in the ΔTM of RCT | 51 µM | – |
| Nc1ncnc2c1ncn2[C@@H]1O[C@H](COP(=O)(O)OP(=O)(O)OP(=O)(O)O)[C@@H](O)[C@H]1O [ATP] | Addition of either ADP or ATP yielded a concentration-dependent increase in the ΔTM of RCT | 42 µM | KEA3 was detected on three of four different types of ATP-linked agarose beads |
| NC(=O)C1=CN([C@@H]2O[C@H](COP(=O)(O)OP(=O)(O)OC[C@H]3O[C@@H](n4cnc5c(N)ncnc54)[C@H](OP(=O)(O)O)[C@@H]3O)[C@@H](O)[C@H]2O)C=CC1 [NADPH] | – | 38 µM | – |
| NC(=O)c1ccc[n+]([C@@H]2O[C@H](COP(=O)(O)OP(=O)(O)OC[C@H]3O[C@@H](n4cnc5c(N)ncnc54)[C@H](OP(=O)(O)O)[C@@H]3O)[C@@H](O)[C@H]2O)c1 [NADP^+] | – | 8 µM | – |
